Drawing on patent US10144732B2 (BIOGEN MA INC., priority 2014, dated 2018), this text covers IC50 for 27 molecules.

Usually pIC50 stands for the IC50 on a negative log10 scale, so that one unit is a factor of ten.

Structures are written as SMILES. pIC50: −log10 of the molar value. Structures can show the parent of a compound that is named as a salt.

The target of the first test is T1, Human ATX protein (Homo sapiens, UniProt Q13822).
T1 construct: made in house
The experiment in a line: ATX biochemical assay (FRET, FS-3 substrate). The settings on record: FRET assay, FS-3 2 μM, ATX 1.0 μg/mL, 30 minutes preincubation, 2 hours reaction at room temperature; read-out: IC50. The method in brief:
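FRET read-out: cleavage of FS-3 (2 μM final) unquenches fluorescein, measured at 485/538 nm after 2 h at room temperature. Before substrate addition, in-house-expressed human autotaxin (1.0 μg/mL) sat with compound for 30 min in pH 7.4 Tris/NaCl/KCl/CaCl2/MgCl2 buffer containing fatty acid free-BSA at 1 mg/mL.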
As to `CC(C)N1CCC(CC(=O)N2CCc3c(C(F)(F)F)nn(Cc4ccc(Cl)cc4F)c3C2)CC1` [Example 11-2, 1-(1-(4-Chloro-2-fluorobenzyl)-3-(trifluoromethyl)-4,5-dihydro-1H-pyrazolo[3,4-c]pyridin-6(7H)-yl)-2-(1-isopropylpiperidin-4-yl)ethanone HCl salt], the pIC50 is at least 7.00. Same read-out and setting: for `CCN1CCC(CC(=O)N2CCc3c(C(F)(F)F)nn(Cc4ccc(Cl)cc4F)c3C2)CC1` [Example 11-3, 1-(1-(4-Chloro-2-fluorobenzyl)-3-(trifluoromethyl)-4,5-dihydro-1H-pyrazolo[3,4-c]pyridin-6(7H)-yl)-2-(1-ethylpiperidin-4-yl)ethanone HCl salt] the value was at least 7.00; for `CC(C)N1CCCC(CC(=O)N2CCc3c(C(F)(F)F)nn(Cc4ccc(F)cc4)c3C2)C1` (stereo not drawn) [Example 11-4, 1-(1-(4-Fluorobenzyl)-3-(trifluoromethyl)-4,5-dihydro-1H-pyrazolo[3,4-c]pyridin-6(7H)-yl)-2-(1-isopropylpiperidin-3-yl)ethanone formate], at least 7.00.

For `COC(=O)C1CCN(CC(=O)N2CCc3c(C(F)(F)F)nn(Cc4ccc(F)cc4)c3C2)CC1` [Example 12-1, Methyl 1-(2-(1-(4-fluorobenzyl)-3-(trifluoromethyl)-4,5-dihydro-1H-pyrazolo[3,4-c]pyridin-6(7H)-yl)-2-oxoethyl)piperidine-4-carboxylate], the negative logarithm of the IC50 (pIC50) was at least 7.00.

Take `O=C(CN1CCCCC1)N1CCc2c(C(F)(F)F)nn(Cc3ccc(Cl)cc3F)c2C1` [Example 12-2, 1-(1-(4-Chloro-2-fluorobenzyl)-3-(trifluoromethyl)-4,5-dihydro-1H-pyrazolo[3,4-c]pyridin-6(7H)-yl)-2-(piperidin-1-yl)ethanone]: the negative-log IC50 (pIC50) is at least 7.00. With `CCOC(=O)C1CCCN(CC(=O)N2CCc3c(C(F)(F)F)nn(Cc4ccc(Cl)cc4F)c3C2)C1` (stereo not drawn) [Example 12-3, Ethyl 1-(2-(1-(4-chloro-2-fluorobenzyl)-3-(trifluoromethyl)-4,5-dihydro-1H-pyrazolo[3,4-c]pyridin-6(7H)-yl)-2-oxoethyl)piperidine-3-carboxylate], the negative logarithm of the IC50 (pIC50) is at least 7.00. With `CCOC(=O)C1CCCN(CC(=O)N2CCc3c(C(F)(F)F)nn(Cc4ccc(F)cc4)c3C2)C1` (stereo not drawn) [Example 12-5, Ethyl 1-(2-(1-(4-fluorobenzyl)-3-(trifluoromethyl)-4,5-dihydro-1H-pyrazolo[3,4-c]pyridin-6(7H)-yl)-2-oxoethyl)piperidine-3-carboxylate], the pIC50 was at least 7.00. On the same count and under the same terms, for `CCOC(=O)C1CCN(C(C)C(=O)N2CCc3c(C(F)(F)F)nn(Cc4ccc(Cl)cc4F)c3C2)CC1` (stereo not drawn) [Example 12-6, Ethyl 1-(1-(1-(4-chloro-2-fluorobenzyl)-3-(trifluoromethyl)-4,5-dihydro-1H-pyrazolo[3,4-c]pyridin-6(7H)-yl)-1-oxopropan-2-yl)piperidine-4-carboxylate] the value was at least 7.00; for `COC(=O)C1CCN(CC(=O)N2CCc3c(C(F)(F)F)nn(Cc4ccc(F)cc4)c3C2)C1` (stereo not drawn) [Example 12-7, Methyl 1-(2-(1-(4-fluorobenzyl)-3-(trifluoromethyl)-4,5-dihydro-1H-pyrazolo[3,4-c]pyridin-6(7H)-yl)-2-oxoethyl)pyrrolidine-3-carboxylate], at least 7.00; for `O=C(CN1CCC(C(F)(F)F)CC1)N1CCc2c(C(F)(F)F)nn(Cc3ccc(Cl)cc3F)c2C1` [Example 12-8, 1-(1-(4-Chloro-2-fluorobenzyl)-3-(trifluoromethyl)-4,5-dihydro-1H-pyrazolo[3,4-c]pyridin-6(7H)-yl)-2-(4-(trifluoromethyl)piperidin-1-yl)ethanone], at least 7.00. The same measure, in the same setting: in the case of `CCOC(=O)CCNCC(=O)N1CCc2c(C(F)(F)F)nn(Cc3ccc(F)cc3)c2C1` [Example 12-9, Ethyl 3-(2-(1-(4-fluorobenzyl)-3-(trifluoromethyl)-4,5-dihydro-1H-pyrazolo[3,4-c]pyridin-6(7H)-yl)-2-oxoethylamino)propanoate] it was under 5.00. Consider `N#CC1CCN(CC(=O)N2CCc3c(C(F)(F)F)nn(Cc4ccc(F)cc4)c3C2)CC1` [Example 12-10, 1-(2-(1-(4-Fluorobenzyl)-3-(trifluoromethyl)-4,5-dihydro-1H-pyrazolo[3,4-c]pyridin-6(7H)-yl)-2-oxoethyl)piperidine-4-carbonitrile TFA salt], for which the pIC50 was at least 7.00. As to `N#CC1CCN(CC(=O)N2CCc3c(C(F)(F)F)nn(Cc4ccc(F)cc4)c3C2)C1` (stereo not drawn) [Example 12-11, 1-(2-(1-(4-Fluorobenzyl)-3-(trifluoromethyl)-4,5-dihydro-1H-pyrazolo[3,4-c]pyridin-6(7H)-yl)-2-oxoethyl)pyrrolidine-3-carbonitrile TFA salt], the pIC50 is at least 7.00.

As for `N#CC1CN(CC(=O)N2CCc3c(C(F)(F)F)nn(Cc4ccc(F)cc4)c3C2)C1` [Example 12-12, 1-(2-(1-(4-Fluorobenzyl)-3-(trifluoromethyl)-4,5-dihydro-1H-pyrazolo[3,4-c]pyridin-6(7H)-yl)-2-oxoethyl)azetidine-3-carbonitrile TFA salt], the negative logarithm of the IC50 (pIC50) is at least 7.00. Same read-out and setting: in the case of `CC1CCN(CC(=O)N2CCc3c(C(F)(F)F)nn(Cc4ccc(Cl)cc4F)c3C2)CC1` [Example 12-13, 1-(1-(4-Chloro-2-fluorobenzyl)-3-(trifluoromethyl)-4,5-dihydro-1H-pyrazolo[3,4-c]pyridin-6(7H)-yl)-2-(4-methylpiperidin-1-yl)ethanone] it was at least 7.00. For the molecule `CC1CCN(CC(=O)N2CCc3c(C(F)(F)F)nn(Cc4ccc(F)cc4)c3C2)CC1` [Example 12-14, 1-(1-(4-Fluorobenzyl)-3-(trifluoromethyl)-4,5-dihydro-1H-pyrazolo[3,4-c]pyridin-6(7H)-yl)-2-(4-methylpiperidin-1-yl)ethanone], the negative-log IC50 (pIC50) is at least 7.00. Still for that read-out and setting: in the case of `O=C(CN1CCC(C(F)(F)F)CC1)N1CCc2c(C(F)(F)F)nn(Cc3ccc(F)cc3)c2C1` [Example 12-15, 1-(1-(4-Fluorobenzyl)-3-(trifluoromethyl)-4,5-dihydro-1H-pyrazolo[3,4-c]pyridin-6(7H)-yl)-2-(4-(trifluoromethyl)piperidin-1-yl)ethanone] it was at least 7.00; in that of `CCOC(=O)C1CCCN(CC(=O)N2CCc3c(C(F)(F)F)nn(Cc4ccc(F)cc4)c3C2)CC1` (stereo not drawn) [Example 12-16, Ethyl 1-(2-(1-(4-fluorobenzyl)-3-(trifluoromethyl)-4,5-dihydro-1H-pyrazolo[3,4-c]pyridin-6(7H)-yl)-2-oxoethyl)azepane-4-carboxylate TFA salt], at least 7.00; in that of `CCOC(=O)C1CCCN(CC(=O)N2CCc3c(C(F)(F)F)nn(Cc4ccc(Cl)cc4F)c3C2)CC1` (stereo not drawn) [Example 12-17, TFA salt], at least 7.00. Consider `COC(=O)CC1CN(CC(=O)N2CCc3c(C(F)(F)F)nn(Cc4ccc(F)cc4)c3C2)C1` [Example 12-19, Methyl 2-(1-(2-(1-(4-fluorobenzyl)-3-(trifluoromethyl)-4,5-dihydro-1H-pyrazolo[3,4-c]pyridin-6(7H)-yl)-2-oxoethyl)azetidin-3-yl)acetate TFA salt], for which the negative-log IC50 (pIC50) was at least 7.00. `O=C(O)C1CCN(CC(=O)N2CCc3c(C(F)(F)F)nn(Cc4ccc(F)cc4)c3C2)CC1` [Example 13-1, 1-(2-(1-(4-Fluorobenzyl)-3-(trifluoromethyl)-4,5-dihydro-1H-pyrazolo[3,4-c]pyridin-6(7H)-yl)-2-oxoethyl)piperidine-4-carboxylic acid]: the pIC50 is at least 7.00. In the case of `O=C(O)C1CCN(CC(=O)N2CCc3c(C(F)(F)F)nn(Cc4ccc(Cl)cc4F)c3C2)CC1` [Example 13-2, 1-(2-(1-(4-Chloro-2-fluorobenzyl)-3-(trifluoromethyl)-4,5-dihydro-1H-pyrazolo[3,4-c]pyridin-6(7H)-yl)-2-oxoethyl)piperidine-4-carboxylic acid], the pIC50 was at least 7.00. Turning to `O=C(O)C1CCCN(CC(=O)N2CCc3c(C(F)(F)F)nn(Cc4ccc(Cl)cc4F)c3C2)C1` (stereo not drawn) [Example 13-3, 1-(2-(1-(4-Chloro-2-fluorobenzyl)-3-(trifluoromethyl)-4,5-dihydro-1H-pyrazolo[3,4-c]pyridin-6(7H)-yl)-2-oxoethyl)piperidine-3-carboxylic acid], the pIC50 was at least 7.00.

The same test, now with this note: IC50, FRET assay, FS-3 2 μM, ATX 1.0 μg/mL, 30 minutes preincubation, 2 hours reaction at room temperature.
Regarding `COC(=O)C1CC2CCC(C1)N2CC(=O)N1CCc2c(C(F)(F)F)nn(Cc3ccc(Cl)cc3F)c2C1` (stereo not drawn) [Example 12-4, Methyl 8-(2-(1-(4-chloro-2-fluorobenzyl)-3-(trifluoromethyl)-4,5-dihydro-1H-pyrazolo[3,4-c]pyridin-6(7H)-yl)-2-oxoethyl)-8-azabicyclo[3.2.1]octane-3-carboxylate], the negative-log IC50 (pIC50) was at least 7.00. Still for that read-out and setting: for `COC(=O)C1CC2COCC(C1)N2CC(=O)N1CCc2c(C(F)(F)F)nn(Cc3ccc(F)cc3)c2C1` (stereo not drawn) [Example 12-18, Methyl 9-(2-(1-(4-fluorobenzyl)-3-(trifluoromethyl)-4,5-dihydro-1H-pyrazolo[3,4-c]pyridin-6(7H)-yl)-2-oxoethyl)-3-oxa-9-azabicyclo[3.3.1]nonane-7-carboxylate] the value was at least 7.00; for `O=C(O)C1CC2CCC(C1)N2CC(=O)N1CCc2c(C(F)(F)F)nn(Cc3ccc(Cl)cc3F)c2C1` (stereo not drawn) [Example 13-4, 8-(2-(1-(4-Chloro-2-fluorobenzyl)-3-(trifluoromethyl)-4,5-dihydro-1H-pyrazolo[3,4-c]pyridin-6(7H)-yl)-2-oxoethyl)-8-azabicyclo[3.2.1]octane-3-carboxylic acid], at least 7.00; for `O=C(O)C1CC2CCC(C1)N2CC(=O)N1CCc2c(C(F)(F)F)nn(Cc3ccc(F)cc3)c2C1` (stereo not drawn) [Example 13-5, 8-(2-(1-(4-Fluorobenzyl)-3-(trifluoromethyl)-4,5-dihydro-1H-pyrazolo[3,4-c]pyridin-6(7H)-yl)-2-oxoethyl)-8-azabicyclo[3.2.1]octane-3-carboxylic acid], at least 7.00.
